Source: patent US6733777B2, “Cationic reagents of transfection” (Qiagen GmbH, priority 1996, dated 2004)
Values joined by “and” are separate entries in the source; they are usually repeats but may differ in a detail not shown here. Equal values may be shown once. Read-outs that look alike come from different tables or passages of the source.

Experiments:
HeLaS3 cells [1] = conditions: liposome with DOPE, 0.5 μg pCMVβ
Protocol: (§1) Without sonication, liposomes were prepared at 60° C. by combining DOPE with one of the following:
(§2) The resulting liposomes were used to transfect HeLaS3 and Huh7 cells in vitro with the reporter plasmid pCMVβ (Clontech). Transfection efficiency values, obtained by taking OD measurements after cell-lysis and β-Gal activity assay, were compared to efficiencies obtained in parallel with a commercially available liposome-preparation (Lipofectamine, Gibco LTI) and given as percentage of Lipofectamine efficiency. In each transfection, 0.5 μg of pCMVβ (isolated with EndoFree, QIAGEN) was used per well of a 96 well plate. The DNA was diluted to 50 μl with DMEM medium (Gibco LTI) and combined with 1, 2, 3 and 4 μl of the liposome preparations subsequently diluted to 50 μl with DMEM medium. DNA and liposome solutions were mixed and applied to the cells for 6 hours at 37° C., 5% CO2. Afterwards, medium was changed to DMEM containing 10% fetal calf serum. Cells were lysed after 48 h incubation at 37° C., 5% CO2.
(§3) Twofold determinations each were performed. The values were averaged and the highest efficiency (optimum) within a row was given as percentage value of the highest efficiency (optimum) obtained with Lipofectamine.

Huh7 cells [2] = conditions: liposome with DOPE, 0.5 μg pCMVβ
Protocol: as §1, §2, §3

COS7 cells = conditions: liposome with DOPE, 1 μg pCMVβ, optimum of 1-4 μl liposome
Protocol: (§4) Liposomes were prepared at 60° C. by combining 10-3-10 (Propandiyl-1,3-bis(decyl dimethylammonium bromide) and DOPE (as described in Example 3), with and without sonication.
(§5) Liposomes were used to transfect HeLaS3 and COS7 cells in vitro with the reporter plasmid pCMVβ (Clontech). Transfection efficiencies, as obtained by optical density (OD) measurements after cell-lysis and β-Gal activity assay, were compared to efficiencies obtained in parallel with a commercially available liposome-preparation (Lipofectamine, Gibco LTI) and given as percentage of Lipofectamine efficiency. For each transfection, 1 μg of pCMVβ (isolated with EndoFree, QIAGEN) was used per well of a 96-well plate. The DNA was diluted to 50 μl with DMEM medium (Gibco LTI) and combined with 1, 2, 3 and 4 μl of the liposome preparations subsequently diluted to 50 μl with DMEM medium. DNA and liposome solutions were mixed and applied to the cells for 6 hours at 37° C., 5% CO2. Afterwards, medium was changed to DMEM containing 10% fetal calf serum. Cells were lysed after 48 h incubation at 37° C., 5% CO2.
as §3

HeLaS3 cells [3] = conditions: for Results (%) HeLaS3 (transfection efficiency as percentage of Lipofectamine efficiency): liposome with DOPE, 1 μg pCMVβ, optimum of 1-4 μl liposome
Protocol: as §4, §5, §3

HeLaS3 cells [4] = assay: Transfection of HeLaS3 cells with pCMVβ, β-Gal activity assay (variation of counter ion); format: cell-based; conditions: 10-2-10 cytofectin with the given counter ion, liposome with DOPE, 0.5 μg pCMVβ
Protocol: Liposomes were used to transfect HeLaS3 cells in vitro with the reporter plasmid pCMVβ (Clontech). […] Cells were incubated for 48 hours at 37° C., 5% CO2 and then lysed.
In similar studies in HeLaS3 cells, the same vector was transfected with liposomes comprising bromide counter ions and the cytofectin, 10-2-10 Ethandiyl-1,2-bis(decyl dimethylammonium).

Huh7 cells [5] = test system: Huh7 cells
Protocol: The resulting liposomes were used to transfect Huh7 cells in vitro with the reporter plasmid pCMVβ (Clontech). Transfection efficiencies, as obtained by OD measurements after cell-lysis and β-Gal activity assay, were compared to efficiencies obtained in parallel with a commercially available liposome-preparation (Lipofectamine, Gibco LTI) and given as percentage of Lipofectamine efficiency. For each transfection, 0.5 μg of pCMVβ (isolated with EndoFree, QIAGEN) was used per well of a 96 well plate. The DNA was diluted to 50 μl with DMEM medium (Gibco LTI) and combined with 1, 2, 3 and 4 μl of the liposome preparations subsequently diluted to 50 μl with DMEM medium. DNA and liposome solutions were mixed and applied to the cells for 6 hours at 37° C., 5% CO2. Afterwards, medium was changed to DMEM containing 10% fetal calf serum. Cells were lysed after 48 h incubation at 37° C., 5% CO2. Twofold determinations each were performed. The values were averaged and the highest efficiency (optimum) within a row was given as percentage value of the highest efficiency (optimum) obtained with Lipofectamine.

[6] = X(DOPE) 0.50, without sonication
[7] = X(DOPE) 0.60, without sonication
[8] = X(DOPE) 0.70, without sonication
[9] = X(DOPE) 0.80, without sonication

Molecule | Results (%) HeLaS3 (transfection efficiency as percentage of Lipofectamine efficiency) (HeLaS3 cells [1]; [6]) [%] | Results (%) HeLaS3 (transfection efficiency as percentage of Lipofectamine efficiency) (HeLaS3 cells [1]; [7]) [%] | Results (%) HeLaS3 (transfection efficiency as percentage of Lipofectamine efficiency) (HeLaS3 cells [1]; [8]) [%] | Results (%) HeLaS3 (transfection efficiency as percentage of Lipofectamine efficiency) (HeLaS3 cells [1]; [9]) [%] | Results (%) Huh7 (transfection efficiency as percentage of Lipofectamine efficiency) (Huh7 cells [2]; [6]) [%] | Results (%) Huh7 (transfection efficiency as percentage of Lipofectamine efficiency) (Huh7 cells [2]; [7]) [%] | Results (%) Huh7 (transfection efficiency as percentage of Lipofectamine efficiency) (Huh7 cells [2]; [8]) [%] | Results (%) Huh7 (transfection efficiency as percentage of Lipofectamine efficiency) (Huh7 cells [2]; [9]) [%] | other results
Butanediyl-1,4-bis(decyl dimethyl-ammonium bromide) [10-4-10] | 200 | 257 | 200 | 123 | 76 | 62 | 54 | 34 | 
Propandiyl-1,3-bis(decyl dimethylammonium bromide) [10-3-10] | 241 | 293 | 223 | 118 | 80 | 83 | 54 | 39 | Results % COS7 (transfection efficiency as percentage of Lipofectamine efficiency) (COS7 cells; X(DOPE) 0.20, sonic. for 300 s): 6%; Results % COS7 (transfection efficiency as percentage of Lipofectamine efficiency) (COS7 cells; X(DOPE) 0.20, w/o sonication): 6%; Results % COS7 (transfection efficiency as percentage of Lipofectamine efficiency) (COS7 cells; X(DOPE) 0.35, sonic. for 300 s): 6%; Results % COS7 (transfection efficiency as percentage of Lipofectamine efficiency) (COS7 cells; X(DOPE) 0.35, w/o sonication): 6%; Results % COS7 (transfection efficiency as percentage of Lipofectamine efficiency) (COS7 cells; X(DOPE) 0.50, sonic. for 300 s): 6%; Results % COS7 (transfection efficiency as percentage of Lipofectamine efficiency) (COS7 cells; X(DOPE) 0.50, w/o sonication): 7%; Results % COS7 (transfection efficiency as percentage of Lipofectamine efficiency) (COS7 cells; X(DOPE) 0.65, sonic. for 300 s): 8%; Results % COS7 (transfection efficiency as percentage of Lipofectamine efficiency) (COS7 cells; X(DOPE) 0.65, w/o sonication): 26%; Results (%) HeLaS3 (transfection efficiency as percentage of Lipofectamine efficiency) (HeLaS3 cells [3]; X(DOPE) 0.20, sonic. for 300 s): 39%; Results (%) HeLaS3 (transfection efficiency as percentage of Lipofectamine efficiency) (HeLaS3 cells [3]; X(DOPE) 0.20, w/o sonication): 39%; Results (%) HeLaS3 (transfection efficiency as percentage of Lipofectamine efficiency) (HeLaS3 cells [3]; X(DOPE) 0.35, sonic. for 300 s): 39%; Results (%) HeLaS3 (transfection efficiency as percentage of Lipofectamine efficiency) (HeLaS3 cells [3]; X(DOPE) 0.35, w/o sonication): 61%; Results (%) HeLaS3 (transfection efficiency as percentage of Lipofectamine efficiency) (HeLaS3 cells [3]; X(DOPE) 0.50, sonic. for 300 s): 47%; Results (%) HeLaS3 (transfection efficiency as percentage of Lipofectamine efficiency) (HeLaS3 cells [3]; X(DOPE) 0.50, w/o sonication): 115%; Results (%) HeLaS3 (transfection efficiency as percentage of Lipofectamine efficiency) (HeLaS3 cells [3]; X(DOPE) 0.65, sonic. for 300 s): 83%; Results (%) HeLaS3 (transfection efficiency as percentage of Lipofectamine efficiency) (HeLaS3 cells [3]; X(DOPE) 0.65, w/o sonication): 275%; cell-type specificity compared with Lipofectamine (HeLaS3 cells [3]; liposomes with DOPE, HeLaS3 versus COS7): more cell-type specific than Lipofectamine
Br [10-2-10, Ethanediyl-1,2-bis(decyldimethylammonium bromide)] | 216 | 286 | 165 | 178 | 142 | 127 | 111 | 115 | Results (%) (optimal transfection efficiency as percentage of the highest efficiency obtained by Lipofectamine) (HeLaS3 cells [4]; [6]): 216%; Results (%) (optimal transfection efficiency as percentage of the highest efficiency obtained by Lipofectamine) (HeLaS3 cells [4]; [7]): 286%; Results (%) (optimal transfection efficiency as percentage of the highest efficiency obtained by Lipofectamine) (HeLaS3 cells [4]; [8]): 165%; Results (%) (optimal transfection efficiency as percentage of the highest efficiency obtained by Lipofectamine) (HeLaS3 cells [4]; [9]): 178%; Result (%) (transfection efficiency as percentage of Lipofectamine efficiency) (Huh7 cells [5]): 111% and 115%; Result (%) (transfection efficiency as percentage of Lipofectamine efficiency) (Huh7 cells [5]; Huh7, liposome with DOPE, X(DOPE) 0.50, without sonication, 0.5 μg pCMVβ): 142%; Result (%) (transfection efficiency as percentage of Lipofectamine efficiency) (Huh7 cells [5]; Huh7, liposome with DOPE, X(DOPE) 0.60, without sonication, 0.5 μg pCMVβ): 127%
